We go through eight compounds from patent US20210308188A1, “CELL CLUSTER INCLUDING OLFACTORY NEURON OR PRECURSOR CELL THEREOF, AND METHOD FOR PRODUCING SAME” (SUMITOMO CHEMICAL COMPANY, LIMITED, priority 2018, published 2021).

Format in all cases: cell-based
For assay [1], the system named is human iPS cells. Put plainly: Cell cluster production with EGF and second Wnt signaling pathway inhibitory substance (Experiment 6). As to conditions: EGF 20 ng/ml added on day 13 and XAV939 300 nM on day 17 (both added); day 28. The procedure: In Experiment 6, as shown in the upper section of FIG. 17, a cell cluster including an olfactory receptor neuron or a precursor cell thereof was produced by performing step (3c) as step (3) from the beginning, adding EGF from the middle of step (3c), and then culturing in the presence of XAV939 as a second Wnt signaling pathway inhibitory substance. The same manipulations as in Experiment 3 were performed except for those specifically indicated.
Specifically, steps (a), (1) and (2) were started with maintenance-cultured human iPS cells, and then, on day 3 after the start of suspension culturing, the medium was half exchanged with a serum-free medium being free of Y27632 and BMP4 and containing IWP-2, SB-431542, FGF2, Heparin Sodium and K02288 (start of step (3c)). FGF2, Heparin Sodium, and K02288 were included to be final concentrations in the well of 20 ng/ml, 10 μg/ml, and 1 μM, respectively. Thereafter, on days 6 and 10 after the start of suspension culturing, the medium was half exchanged with a serum-free medium being free of Y27632 and BMP4 and containing IWP-2, SB-431542, FGF2, Heparin Sodium and K02288. In addition, on day 13 after the start of suspension culturing, in addition to the above factors, EGF (manufactured by PrimeGene Co., Ltd.) was added to be a final concentration of 20 ng/ml. […]

Assay [2] deals with human iPS cells. The experiment in a line: Study for first Wnt signaling pathway inhibitory substance in cell cluster production (Experiment 9). The note with it: added from start of suspension culturing (IWP-2, IWP-3, IWP-4 2 μM; Wnt C-59 20 nM; KY02111 1 μM); BMP4 on day 2; day 28. The procedure:
In Experiment 9, a study of cell cluster production efficiency was performed for the type of the first Wnt signaling pathway inhibitory substance, using human iPS cells. The experiments were performed in accordance with the procedures shown in the upper section of FIG. 22, and the same manipulations as in Experiment 3 were performed except for those specifically indicated. The suspension culturing of the human iPS cells subjected to maintenance culturing and step (a) was started in a medium supplemented with a first Wnt signaling pathway inhibitory substance, Y27632 (final concentration 20 μM) and SB-431542 (final concentration 1 μM).
As the first Wnt signaling pathway inhibitory substance, IWP-2 (manufactured by Tocris Biosciences, final concentration 2 μM), IWP-3 (manufactured by Cayman Chemicals, final concentration 2 μM), IWP-4 (manufactured by Cayman Chemicals, final concentration 2 μM), Wnt C-59 (manufactured by Cayman Chemicals, final concentration 20 nM), or KY02111 (manufactured by Cayman Chemicals, final concentration 1 μM) was used. As a control in which the first Wnt signaling pathway inhibitory substance was not added, DMSO was added.
On day 2 after the start of suspension culturing, a serum-free medium being free of Y27632 and containing each first Wnt signaling pathway inhibitory substance, SB-431542 and BMP4 (final concentration 1.5 nM) was added at 100 μl per well. In addition, on day 3 after the start of suspension culturing, the medium was half exchanged with a serum-free medium being free of Y27632 and BMP4 and containing SB-431542, K02288, FGF2, Heparin Sodium, and EGF. K02288, FGF2, Heparin Sodium, EGF were included to final concentrations in the well were 10 μM, 20 ng/ml, 10 μg/ml and 20 ng/ml, respectively. On days 6, 10, 13, 17, 21, and 24 after the start of suspension culturing, the medium was half exchanged with a serum-free medium being free of Y27632 and BMP4 and containing each first Wnt signaling pathway inhibitory substance, SB-431542, K02288, FGF2, Heparin Sodium, and EGF.
On day 28 after the start of suspension culturing, bright-field observation was performed with an inverted microscope (FIGS. 22A to 22F).
The cell clusters on day 28 after the start of suspension culturing were subjected to immunofluorescence staining in accordance with the same method as in Comparative Experiment 1. As primary antibodies, an anti-Six1 antibody and an anti-pan-cytokeratin antibody staining placode and non-neural epithelial tissues, and an anti-Sox2 antibody staining placode and neural cells, described in Table 1, were used. As fluorescently labeled secondary antibodies, an Alexa488-labeled donkey anti-rabbit antibody, a CF555-labeled donkey anti-goat antibody, and an Alexa647-labeled donkey anti-mouse antibody, described in Table 2, were used to perform multiple staining. Hoechst 33342 was used for contrast staining of the nucleus. The positive and negative determinations of the staining results were performed in the same manner as in Preliminary Experiment 1.
Under the conditions in which the first Wnt signaling pathway inhibitory substance was not added, no non-neural epithelial tissue was formed on the surface of the cell aggregate even when BMP4 was added on day 2 after the start of suspension culturing.

Assay [3] has as its system human iPS cell line HC-6 #10. Put plainly: Combination use of Wnt signaling pathway-activating substance and inhibitory substance in cell cluster production (Experiment 14). The text has this: Cell clusters were produced in accordance with the procedures shown in the upper section of FIG. 28 by using Wnt signaling pathway-activating substance and inhibitory substance in combination. Human iPS cells (HC-6 #10 cell line, obtained from the Institute of Physical and Chemical Research) were subjected to maintenance culturing and step (a) in the same manner as in Experiment 1. The suspension culturing was started on a 96-well culture plate in the same manner as in Experiment 1, except that the number of cells per well was 9×10^3 cells. At the start of suspension culturing (day 0 after the start of suspension culturing, start of step (1)), Y27632 (final concentration 20 μM), IWP-2 (final concentration 2 μM), and SB-431542 (final concentration 1 μM) were added to the serum-free medium. In addition, CHIR99021 (manufactured by Cayman Chemical, Inc.) was added as a Wnt signaling pathway-activating substance such that the final concentration was 300 nM. When the Wnt signaling pathway inhibitory substance IWP-2 and the Wnt signaling pathway-activating substance CHIR99021 are used in combination, β-catenin-dependent Wnt Canonical Pathway is activated and β-catenin-independent Wnt-non-Canonical Pathway is inhibited. On day 2 after the start of suspension culturing, a serum-free medium being free of Y27632 and containing SB-431542, BMP4, IWP-2 and CHIR99021 was added at 100 μl per well (start of step (2)). BMP4 was added to the medium at 3 nM to be a final concentration in the well of 1.5 nM. On day 3 after the start of suspension culturing, the medium was half exchanged with a serum-free medium being free of Y27632 and BMP4 and containing IWP-2, SB-431542, FGF2 and CHIR99021 (start of step (3a)). Thereafter, on days 6 and 10 after the start of suspension culturing, the medium was half exchanged with a serum-free medium being free of Y27632 and BMP4 and containing IWP-2, SB-431542, FGF2, CHIR99021, and K02288 (start of step (3c)). […]

The mark [4] stands for this setting: CHIR99021 300 nM added together with IWP-2 2 μM, day 21.

As for `O=c1[nH]c(-c2ccc(C(F)(F)F)cc2)nc2c1CSCC2` [3,5,7,8-Tetrahydro-2-[4-(trifluoromethyl)phenyl]-4H-thiopyrano[4,3-d]pyrimidin-4-one], the “stability of non-neural epithelial tissue part including olfactory receptor neuron or precursor cell versus conditions without addition” value in the assay with human iPS cells [1] is listed as “more stable”.

With `Cc1ccc2nc(NC(=O)CSc3nc4c(c(=O)n3-c3ccccc3)SCC4)sc2c1` [IWP-2, N-(6-Methyl-2-benzothiazolyl)-2-[(3,4,6,7-tetrahydro-4-oxo-3-phenylthieno[3,2-d]pyrimidin-2-yl)thio]-acetamide], the “formation of aggregates having non-neural epithelial tissues on the surface” value in the assay on human iPS cells [2] is “aggregates having non-neural epithelial tissues on the surface were formed”. “EGF: EGF signaling pathway-activating substance, manufactured by PrimeGene (NSDSECPLSHDGYCLHDGVCMYIEALDKYACNCVVGYIGERCQYRDLKWWELR; Epidermal growth factor; UniProt P01133 971-1023, looked up)”: in the assay on human iPS cells [1], the “stability of non-neural epithelial tissue part including olfactory receptor neuron or precursor cell versus conditions without addition” value is reported as “more stable”. On to `COc1ccc(CCC(=O)Nc2nc3ccc(Cl)cc3s2)cc1OC` [KY02111, N-(6-Chloro-2-benzothiazolyl)-3,4-dimethoxybenzenepropanamide], for which, in the assay on human iPS cells [2], the “formation of aggregates having non-neural epithelial tissues on the surface” value was “aggregates having non-neural epithelial tissues on the surface were formed”.

For the compound `Cc1cc(-c2ccc(CC(=O)Nc3ccc(-c4cccnc4)cc3)cc2)ccn1` [Wnt C-59, 2-[4-(2-Methylpyridin-4-yl)phenyl]-N-[4-(pyridin-3-yl)phenyl]acetamide], the “formation of aggregates having non-neural epithelial tissues on the surface” value in the assay with human iPS cells [2] is reported as “aggregates having non-neural epithelial tissues on the surface were formed”. On the same count and under the same terms, next, `Cc1ccc2nc(NC(=O)CSc3nc4c(c(=O)n3-c3ccc(F)cc3)SCC4)sc2c1` [IWP-3, 2-[[3-(4-fluorophenyl)-3,4,6,7-tetrahydro-4-oxothieno[3,2-d]pyrimidin-2-yl]thio]-N-(6-methyl-2-benzothiazolyl)-acetamide]: “aggregates having non-neural epithelial tissues on the surface were formed”.

Consider `Cc1c[nH]c(-c2cnc(NCCNc3ccc(C#N)cn3)nc2-c2ccc(Cl)cc2Cl)n1` [CHIR99021], for which, in assay [3] (setting [4]), the “formation of olfactory epithelial-like tissue on the external of the cell cluster” value is on record as “formed an olfactory epithelial-like tissue on the external of the cell cluster” and the “number of dead cells in neural tissues inside of the cell clusters” value was “reduced”. In assay [3] (combination with IWP-2), the “extent of CHIR99021 at which Wnt-Canonical Pathway activity promotes survival of nervous tissues inside of the cell cluster and epithelial formation” value is ≤ 3 µM. As to `COc1ccccc1-n1c(SCC(=O)Nc2nc3ccc(C)cc3s2)nc2c(c1=O)SCC2` [IWP-4, N-(6-methyl-2-benzothiazolyl)-2-[[3,4,6,7-tetrahydro-3-(2-methoxyphenyl)-4-oxothieno[3,2-d]pyrimidin-2-yl]thio]-acetamide], the “formation of aggregates having non-neural epithelial tissues on the surface” value in the assay on human iPS cells [2] is “aggregates having non-neural epithelial tissues on the surface were formed”.
